Assay results reported in patent US20080206198A1, “Compounds and methods for pharmico-gene therapy of epithelial sodium channel associated disorders” (priority 2003, published 2008).
Peptide text beside a SMILES is read from it. * marks the point of attachment. Cbz = O=C(OCc1ccccc1)*

Tests used:
[1] = tested on: IB3-1 cells; assay: AAV2 FLAG-Luc transduction of IB3-1 cells; type: cell-based, human; conditions: 20 to 80 μM
Text: A. To screen for agents that enhance rAAV transduction, any number of cells can be used. A range of concentrations of the agent to be tested can be determined based on, for instance desirable profiles of the agent, desirable toxicity profiles of the agent and/or concentration of the agents employed in vivo. The usefulness of the cell type chosen for the screen can be confirmed by testing compounds, e.g., proteasome inhibitors such as LLnL and ZLL which are known to increase rAAV transduction. For example, a AAV2 FLAG-Luc vector was employed to transduce HeLa, ferret fibroblasts, IB3 and Huh (liver) cells in the presence or absence of the proteasome inhibitor MG132. MG132 was confirmed to enhance AAV transduction in all cell types tested: HeLa cell transduction was enhanced about 500-fold at 80 μM, and 200-fold at 40 μM, MG132; ferret fibroblast cell transduction was enhanced about 200-fold at 20 μM, and 17-fold at 4 μM, MG132; IB3-1 cell transduction was enhanced about 30 to 70-fold at 20 to 80 μM MG132; and Huh-7 cell transduction was enhanced about 15-fold at 20 to 80 μM MG132. There was no difference in rAAV transduction efficiency in HeLa cells when either DMSO or ETOH was used as a vehicle for MG132. B. HeLa cells were selected to screen for additional agents that enhance rAAV transduction, although any cell strain or line; or primary cells, may be employed. […]

[2] = tested on: γ-ENaC gene promoter; assay: Methylation-sensitive PCR of the γ-ENaC promoter CpG island in A549 cells; type: cell-based, human; conditions: A549 genomic DNA
Experimental: Analysis of γ-ENaC promoter CpG Methylation. The methylation status of a CpG island beginning at approximately −1.8 kb of the γ-ENaC promoter was analyzed using a previously described PCR method (Malik et al., 2001). Briefly, genomic DNA was isolated from A549 cells that had been treated with and without doxorubicin, and then digested overnight with Mbol, MboI/MspI, or Mbol/HpaII. PCR reactions were then performed using primers that flank the MspI/HpaII sites in this region. Primers: forward 5′-[…]-3′ (SEQ ID NO: 13); reverse 5′-[…]-3′ (SEQ ID NO: 14).

[3] = tested on: Balb/c mice; assay: Safety of anthracyclines in Balb/c mice; type: in vivo, mouse; conditions: intranasal, 10% HDE
Text: Animals were followed for seven days post dose.
Safety endpoints included morbidity and mortality, clinical observations, body weights, gross necropsy observations and histopathology. Transduction endpoints included luciferase and GFP analysis.

[4] = Solubility in ethanol; type: physicochemical
[5] = tested on: polarized bronchial epithelia cells; assay: S^35-labeled rAAV binding/entry and in situ localization in polarized bronchial epithelia; type: cell-based, human
Experimental: Viral binding/entry assays and in situ localization of viral particles. To assess the binding of rAAV to polarized bronchial epithelia cells, S^35-labeled AV.GFP3ori was applied to either the apical or basal surface (MOI=50,000 particles/cell), followed by incubation at 4° C. for 60 minutes. Combined binding/entry of rAAV into differentiated airway epithelia was measured under the same conditions, except that the cultures were incubated at 37° C. for an additional 2-24 hours before they were harvested. These combined viral binding/entry assays were performed under identical infection conditions to those used for functional studies of rAAV transduction with transgene expression as an endpoint. After washing three times in PBS, cells were lysed in situ by the addition of 5 ml of liquid scintillation cocktail at room temperature for 5 minutes, and the radioactivity was quantitated in a scintillation counter.
To analyze the subcellular localization of the rAAV particles within polarized human bronchial epithelial cells, infection was performed by applying S^35 labeled virus (MOI=50,000 particles/cell) to either the mucosal or serosal surface. At 2 hours post-infection, transwells were washed with medium three times and fixed in 4% paraformaldehyde overnight prior to cryoprotection and embedding for frozen sectioning. 10 μm frozen sections were overlaid with photoemulsion and developed for 5 weeks according to a previously published protocol (Duan et al., 1998).

In the case of `CC(C)C[C@@H](C=O)NC(=O)[C@H](CC(C)C)NC(=O)[C@H](CC(C)C)NC(=O)OCc1ccccc1` [Z-LLL, N-carbobenzoxyl-L-leucinyl-L-leucinyl-L-leucinal] (Cbz-Leu-Leu-Leu-aldehyde), the “enhancement of IB3-1 cell transduction” value [1] is reported as 30 to 70 fold.
In the case of `COc1cccc2c1C(=O)c1c(O)c3c(c(O)c1C2=O)C[C@@](O)(C(=O)CO)C[C@@H]3O[C@H]1C[C@H](N)[C@H](O)[C@H](C)O1` [doxorubicin], the “CpG methylation of the γ-ENaC promoter (protection from HpaII digestion)” value [2] is reported as “significant Dox-dependent protection from HpaII digestion”, the “mortality and clinical observations” value ([3]; 7 days) is reported as “early mortality of some animals, ruffled hair coats and sick mice” and the body weight ([3]; over the week) is reported as “lost considerable body weight”.
In the case of “N-acetyl-L-leucinyl-L-leucinal-L-norleucinal [LLnL]”, the solubility in ethanol [4] is reported as “poor solubility”, the rAAV binding ([5]; 4° C.) is reported as “no significant effect” and the “uptake of S^35 labeled rAAV” value ([5]; 2 hour infection period at 37° C.) is reported as “not altered”. For the same molecule, the “intracellular distribution of radiolabeled rAAV particles” value ([5]; 2 hours post-infection, photoemulsion overlay) was “significant shift to nuclear associated grains” and the intracellular radioactivity ([5]; 24 hours post-infection) was “very significant decrease”.
